Experimental data as given in paper PMC8143347, “Metabolism and Interspecies Variation of IMMH-010, a Programmed Cell Death Ligand 1 Inhibitor Prodrug” (Pharmaceutics, 2021).

Key:
B16F10 melanoma = experiment: Antitumor activity in B16F10 melanoma xenograft model; type: in vivo, mouse; conditions: B16F10, CTX 80 mg/kg weekly, day 19
Protocol: (§1) The antitumor activity of IMMH-010 was evaluated by B16F10 melanoma and MC38 colon carcinoma xenograft models. The B16F10 and MC38 cells were resuspended in saline (1.5 × 10^6 cells/0.2 mL saline) and injected subcutaneously into the right flanks of each mouse on day 0. The treated mice received once-daily oral administration of IMMH-010 maleate (1.25, 2.5, 5, and 10 mg/kg, n = 10) by oral gavage (PO) for 19 consecutive days, whereas the control mice received vehicle (0.5% carboxymethyl cellulose, n = 10). The mice in the positive control group received the anti-mouse PD-L1 antibody (696618M2, Bio X Cell, West Lebanon, NH, USA) at 10 mg/kg intraperitoneally every 3 days (n = 10). The first-line antineoplastic drug cyclophosphamide (CTX) was administered at doses of 80 and 40 mg/kg weekly in the B16F10 and MC38 models (n = 10), respectively. After the last treatment, on day 19, the mice were sacrificed, and the tumor and spleen were stripped and weighed. The tumor growth inhibition (TGI) was calculated as TGI = (1 − treatment group tumor weight/vehicle group tumor weight) × 100.

[1] = Body weight in B16F10 model; conditions: B16F10, CTX 80 mg/kg weekly
Protocol: as §1

[2] = Body weight in MC38 model; conditions: MC38, CTX 40 mg/kg weekly
Protocol: as §1

MC38 colon carcinoma = experiment: Antitumor activity in MC38 colon carcinoma xenograft model; type: in vivo, mouse; conditions: MC38, CTX 40 mg/kg weekly, day 19
Protocol: as §1

Compound: O=P1(N(CCCl)CCCl)NCCCO1 (centres unmarked) [CTX, cyclophosphamide, reference compound]
- Tumor Weight (g) X ± SD (B16F10 melanoma): 0.23 ± 0.18 g
- Tumor Weight TGI (%) (B16F10 melanoma): 90%
- Body Weight (g) X ± SD Finish ([1]; finish day 19): 19.2 ± 0.8 g
- Body Weight (g) X ± SD Start ([1]; start): 16.94 ± 0.43 g
- Body Weight (g) X ± SD Finish ([2]; finish day 19): 24.5 ± 0.9 g
- Body Weight (g) X ± SD Start ([2]; start): 22.0 ± 0.8 g
- Tumor Weight (g) X ± SD (MC38 colon carcinoma): 0.17 ± 0.10 g
- Tumor Weight TGI (%) (MC38 colon carcinoma): 90%
